This experiment concerns Smpd3 expression. In words: Smpd3 expression by RT-qPCR in B16K1 melanoma cells incubated with 5-aza or TSA. It counts as cell-based, murine. How it is done: A, B16K1 cells expressing (2+) or not (2−) V5-tagged nSMase 2 were analyzed by Western blot using anti-V5 and anti-β-actin antibodies. B, Neutral SMase activity in B16K1 nSMase 2+ (2+) and nSMase 2− (2−) as well as in mock-transfected B16K1 cells. C, Intracellular ceramide levels in B16K1 nSMase 2+(2+) and nSMase 2− (2−) as well as in mock-tranfected B16K1 cells. Data are expressed as the % of values obtained with mock-transfected B16K1 cells. Values are shown as means±sem of 3 independent experiments (B and C). D, In vitro B16K1 cell growth was evaluated in 10% FCS medium (left panel) or 0% FCS medium ([…]). […] Cells were analysed by Western blot using anti-V5 and anti-β-actin antibodies. […] Data are shown as means±sem of 3 independent experiments. (*: p<0.05; **: p<0.01). G, B16K1 melanoma cells were incubated or not with 1 μM of 5 aza-2 deoxycitidine (5-aza) during 72 hours or with 0.1 μM Trichostatine A (TSA) during the last 16 hours. Smpd3 expression was analysed by RT-qPCR. Data are shown as means±sem of 3 independent experiments.
RNA isolation and qRT-PCR. RNA isolation from cells and exosomes was performed by using the Qiagen RNeasy mini kit and Qiagen miRNeasy kit respectively, according to manufacturer's instructions. […]

For the compound `Nc1ncn([C@@H]2O[C@H](CO)[C@@H](O)[C@H]2O)c(=O)n1` [5-Azacytidine], under “1 μM 5-aza during 72 hours”, the Smpd3 expression result was “not”.

With `CC(/C=C/C(=O)NO)=C\[C@@H](C)C(=O)c1ccc(N(C)C)cc1` [trichostatin A], the Smpd3 expression result (0.1 μM TSA during the last 16 hours) is listed as “greatly enhanced”.

Values taken from US11078277B2, “Methods and pharmaceutical compositions for enhancing CD8+ T cell-dependent immune responses in subjects suffering from cancer” (INSERM (INSTITUT NATIONAL DE LA SANTE ET DE LA RECHERCHE …, priority 2016, dated 2021).
